Laboratory results: patent US7875648B2, “N-(dibenz(b,f)oxepin-10-ylmethyl)-N-methyl-N-prop-2-ynylamine (omigapil) for the treatment of congenital muscular dystrophy or myopathy resulting from collagen VI deficiency” (Santhera Pharmaceuticals (Schweiz) AG, priority 2006, dated 2011)

Tests used:
[1] = tested on: glyceraldehyde-3-phosphate dehydrogenase (GAPDH); conditions: reported in J. Biol. Chem. 273:5821-5828; cited from earlier work
[2] = tested on: homozygous col6a1-/- mice (Col6a1-deficient mouse model), diaphragm muscle; assay: Apoptotic (TUNEL-positive) nuclei in diaphragm muscle of col6a1-/- mice; assay type: in vivo; conditions: 5 days
Source text: (§1) Homozyguous col6a1−/− mutants lack triple-helical collagen VI resulting in a phenotype that resembles BM/UCMD in human patients with collagen VI deficiency. Specifically, col6a1−/− mice show histological features of myopathy such as fiber necrosis and phagocytosis and a pronounced variation in fiber diameter. Muscles also show signs of stimulated regeneration of fibers and necrotic fibers are particularly frequent in the diaphragm thereby resembling more the clinical picture of UCMD than BM (Bertini E., Pepe G. (2002) Collagen type VI and related disorders: Bethlem myopathy and Ullrich scleroatonic muscular dystrophy Europ. J. Paediatric Neurology 6:193-198). […] This mitochondrial dysfunction might be caused by slight increase in of sarcolemmal calcium influx followed by calcium overload eventually causing opening of the mitochondrial permeability transition pore (MPTP) and finally apoptosis.
The effect of N-(dibenz(b,f)oxepin-10-ylmethyl)-N-methyl-N-prop-2-ynylammonium maleate (omigapil) was tested on the number of apoptotic nuclei in muscle of a Col6a1-deficient mouse model. Starting at 16±4 weeks of age, homozygous col6a1−/− mice were treated with omigapil. For this, omigapil was dissolved in 1% w/v ethanol to a final concentration of 20 μg/ml. Mutant mice received a final dose of 1 mg/kg or 10 mg/kg omigapil given twice daily by gavage following the guidance as described elsewhere (Sagot Y. et al. (2000) An orally active anti-apoptotic molecule (CGP 3466B) preserves mitochondria and enhances survival in an animal model of motoneuron disease. Br. J. Pharmacol. 131:721-728). For comparison col6a1−/− mice received the equivalent amount of vehicle only. After five days of application mice were sacrificed, the diaphragm removed, sectioned and stained for apoptotic nuclei using TUNEL staining. The number of apoptotic nuclei per mm2 area in the diaphragm muscle was determined as described (Irwin W A et al. (2003) Mitochondrial dysfunction and apoptosis in myopathic mice with collagen VI deficiency. Nature Genetics 35:367-371).

[3] = tested on: Col6a1-deficient mice, mitochondria in muscle fibers of the diaphragm muscle; assay: Ultrastructural appearance of mitochondria in diaphragm muscle fibers of Col6a1-deficient mice; assay type: in vivo, mouse; conditions: for percentage of myofibers with pathologically altered mitochondria vs vehicle-treated animals: Col6a1-deficient mice, diaphragm, FIG. 2
Source text: as §1
The effect of N-(dibenz(b,f)oxepin-10-ylmethyl)-N-methyl-N-prop-2-ynylammonium maleate (omigapil) was tested on the effect to normalize ultrastructural defects in mitochondria of a Col6a1-deficient mouse model. For this, Col6a1-deficient mice were treated with omigapil as described in Example 1.
The ultrastructural appearance of mitochondria in muscle fibers of the diaphragm muscle was determined and quantified as described (Irwin W A et al. (2003) Mitochondrial dysfunction and apoptosis in myopathic mice with collagen VI deficiency. Nature Genetics 35:367-371).

Compound | binding to glyceraldehyde-3-phosphate dehydrogenase (GAPDH) [1] | number of apoptotic nuclei in diaphragm muscle (TUNEL staining) vs vehicle-treated col6a1-/- mice ([2]; 1 mg/kg twice daily by gavage, N=3, FIG. 1) | number of apoptotic nuclei in diaphragm muscle (TUNEL staining) vs vehicle-treated col6a1-/- mice ([2]; 10 mg/kg twice daily by gavage, N=4, FIG. 1) | number of apoptotic nuclei in omigapil-treated animals relative to wild-type animal ([2]; omigapil-treated, diaphragm muscle) | ultrastructural appearance of mitochondria in muscle fibers of the diaphragm muscle ([3]; Col6a1-deficient mice treated as in Example 1) | percentage of myofibers with pathologically altered mitochondria vs vehicle-treated animals ([3]; 1 mg/kg (animals B1-B2)) | percentage of myofibers with pathologically altered mitochondria vs vehicle-treated animals ([3]; 10 mg/kg (animals A1-A3))
C#CCN(C)CC1=Cc2ccccc2Oc2ccccc21 [compound of formula (I), N-(dibenz(b,f)oxepin-10-ylmethyl)-N-methyl-N-prop-2-ynylamine] | binds to glyceraldehyde-3-phosphate dehydrogenase (GAPDH) |  |  |  |  |  | 
N-(dibenz(b,f)oxepin-10-ylmethyl)-N-methyl-N-prop-2-ynylammonium maleate [omigapil] |  | significantly reduced | significantly reduced | comparable to the number seen in diaphragm muscle of a wild-type animal | normalized | clearly reduced | clearly reduced
